# In US10213450B2, “Combination of biologically active substances for treatment of hyperglycaemic disorders” (BioActive Food GmbH, priority 2014, dated 2019):
# Columns and labels:
# human SGLT1 = target: T1, human SGLT1 (Homo sapiens, UniProt P13866); test: Ex vivo model: incubation with LPH-expressing human small intestine brush border membranes, then SGLT1 activity of supernatants by two-electrode voltage-clamp in Xenopus oocytes; format: cell-based; conditions: LPH inhibitor 10 μg/ml alone
# T1 construct: expressed in transfected cells; host or cells: Xenopus oocytes
# T1 sequence (P13866 1-664): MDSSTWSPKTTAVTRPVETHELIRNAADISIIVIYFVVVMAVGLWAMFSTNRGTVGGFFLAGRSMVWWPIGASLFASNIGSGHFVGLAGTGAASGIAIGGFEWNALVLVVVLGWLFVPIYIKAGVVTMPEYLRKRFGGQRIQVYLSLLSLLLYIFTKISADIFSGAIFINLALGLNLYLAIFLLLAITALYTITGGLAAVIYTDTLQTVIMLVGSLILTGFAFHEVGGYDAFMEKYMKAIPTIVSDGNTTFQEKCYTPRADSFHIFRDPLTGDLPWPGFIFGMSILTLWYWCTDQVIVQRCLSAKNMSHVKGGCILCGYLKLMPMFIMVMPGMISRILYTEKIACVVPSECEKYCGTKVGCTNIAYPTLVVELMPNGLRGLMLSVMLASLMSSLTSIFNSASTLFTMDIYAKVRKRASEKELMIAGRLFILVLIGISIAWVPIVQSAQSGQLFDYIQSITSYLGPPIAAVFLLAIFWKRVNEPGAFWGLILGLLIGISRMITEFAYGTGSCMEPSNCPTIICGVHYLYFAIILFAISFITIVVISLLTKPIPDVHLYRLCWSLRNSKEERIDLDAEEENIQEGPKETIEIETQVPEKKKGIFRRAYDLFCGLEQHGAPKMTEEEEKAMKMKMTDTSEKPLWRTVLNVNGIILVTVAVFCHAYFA
# Procedure: The effect of a combination of phlorizin and a LPH inhibitor on the uptake of glucose by the SGLT 1 transporter was tested with an ex vivo model that simulates the situation in the human intestine. The ex vivo test model uses tissue from the human small intestine which expresses the lactase phlorizin hydrolase (LPH) and is thus able to cleave phlorizin and other glycosides. Subsequently, the reaction batches that had been pre-processed in this way were tested in an in vitro assay for their inhibitory effect on the SGLT1 transporter.
# In summary, so-called “brush border membranes” were prepared from the small intestine and incubated in an appropriate buffer with phlorizin and/or the respective LPH inhibitor for 90 minutes.
# Here, Xenopus oocytes were used which express the human SGLT1. The transport of glucose by SGLT1 can be measured because the combined transport of glucose and sodium by SGLT1 causes a current through the oocyte membrane. This current is determined electrophysiologically by a “two-electrode voltage-clamp” method. In this model, a reduction in the activity of the SGLT1 also results in a reduction of current across the cell membrane.
# [1] = target: T2, lactase phlorizin hydrolase (LPH) (Homo sapiens, UniProt P09848); test: In vitro inhibition of LPH, phlorizin dihydrate as substrate, released glucose measured; format: biochemical
# T2 construct: tissue of the human small intestine (0.6 mg/ml) expressing the LPH was used; from tissue; host or cells: human small intestine tissue
# T2 sequence (P09848 869-1927): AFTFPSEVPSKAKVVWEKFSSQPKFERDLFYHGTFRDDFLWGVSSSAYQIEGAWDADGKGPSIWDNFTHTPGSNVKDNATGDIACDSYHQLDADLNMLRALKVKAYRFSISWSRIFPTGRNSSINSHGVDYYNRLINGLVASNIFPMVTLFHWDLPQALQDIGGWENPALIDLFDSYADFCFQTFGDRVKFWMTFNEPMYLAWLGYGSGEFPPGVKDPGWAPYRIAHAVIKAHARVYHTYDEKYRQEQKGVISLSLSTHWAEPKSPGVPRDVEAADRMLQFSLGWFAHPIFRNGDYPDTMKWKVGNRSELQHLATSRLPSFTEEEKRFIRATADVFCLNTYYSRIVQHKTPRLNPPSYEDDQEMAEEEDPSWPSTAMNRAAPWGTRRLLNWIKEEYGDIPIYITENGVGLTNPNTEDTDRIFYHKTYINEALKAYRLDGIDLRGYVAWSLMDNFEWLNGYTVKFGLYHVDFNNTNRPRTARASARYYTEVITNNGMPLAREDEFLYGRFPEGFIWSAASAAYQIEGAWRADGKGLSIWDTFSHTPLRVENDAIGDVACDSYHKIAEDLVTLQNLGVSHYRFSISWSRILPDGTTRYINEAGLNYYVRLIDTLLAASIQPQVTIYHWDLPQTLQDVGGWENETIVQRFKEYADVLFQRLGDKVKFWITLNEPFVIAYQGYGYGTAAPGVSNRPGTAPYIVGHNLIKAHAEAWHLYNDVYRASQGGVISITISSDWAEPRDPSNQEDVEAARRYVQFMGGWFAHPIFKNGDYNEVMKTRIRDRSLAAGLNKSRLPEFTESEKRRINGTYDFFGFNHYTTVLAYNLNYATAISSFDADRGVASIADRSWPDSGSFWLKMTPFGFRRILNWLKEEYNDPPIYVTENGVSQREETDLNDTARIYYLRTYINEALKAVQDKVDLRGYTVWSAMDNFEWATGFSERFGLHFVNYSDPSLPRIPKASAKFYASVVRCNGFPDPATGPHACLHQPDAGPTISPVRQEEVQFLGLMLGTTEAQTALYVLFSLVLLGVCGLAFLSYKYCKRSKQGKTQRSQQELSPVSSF
# Procedure: Various quercetin and kaempferol derivates were tested in vitro as inhibitors of lactase phlorizin hydrolase (LPH). The testing was carried out according to Amiri et al. (2012, J Inherit Metab Dis, 35(6): 949-54). Here, tissue of the human small intestine (0.6 mg/ml) expressing the LPH was used. Phlorizin dihydrate served as the substrate. The released glucose was measured using a standard assay (Chu & Cheung, 1978, Clin Biochem, 11(4): 187-9).
structure (smiles),measurement,setting,value
"O=c1c(O)c(-c2ccc(O)c(O)c2)oc2cc(OC3O[C@H](CO)[C@@H](O)[C@H](O)[C@H]3O)cc(O)c12 (stereo partly shown) [No. 3, 3,3′,4′,5,7-pentahydroxy flavone-7-glucoside]","Glucose uptake, inhibition",human SGLT1; Batch A,2%
same,"Glucose uptake, inhibition",human SGLT1; Batch B,2.5%
same,inhibition of the LPH,[1]; concentration of 50 mg/ml (as printed in text),about 70%
O=c1c(OC2O[C@H](CO)[C@@H](O)[C@H](O)[C@H]2O)c(-c2ccc(O)c(O)c2)oc2cc(O)cc(O)c12 (stereo partly shown) [compound 2],inhibition at 100 µg/mL,[1]; 100 μg/ml inhibitor (stated in cell),13.7%
